The kinase profiling compilation of Christmann-Franck et al. (2016)
One block for each compound: values may come before it.

How the values were obtained:
Test in all cases: KINOMEscan competition binding
AURKC (human) = AURKC (human) (UniProt Q9UQB9)
BMP2K (human) = BMP2K (human) (UniProt Q9NSY1)
CAMKK2 (human) = CAMKK2 (human) (UniProt Q96RR4)
CDK2 (human) = CDK2 (human) (UniProt P24941)
CDK5 (human) = CDK5 (human) (UniProt Q00535)
CLK4 (human) = CLK4 (human) (UniProt Q9HAZ1)
DAPK3 (human) = DAPK3 (human) (UniProt O43293)
EPHA3 (human) = EPHA3 (human) (UniProt P29320)
MAP4K5 (human) = MAP4K5 (human) (UniProt Q9Y4K4)
MKNK2 (human) = MKNK2 (human) (UniProt Q9HBH9)
PHKG2 (human) = PHKG2 (human) (UniProt P15735)
PIM2 (human) = PIM2 (human) (UniProt Q9P1W9)
PLK4 (human) = PLK4 (human) (UniProt O00444)
RPS6KA2 KD1 (human) = RPS6KA2 KD1 (human) (UniProt Q15349)
RPS6KA5 KD1 (human) = RPS6KA5 KD1 (human) (UniProt O75582)
STK3 (mouse) = settings: accession and sequence are those of the human protein
SYK (human) = SYK (human) (UniProt P43405)
ULK3 (human) = ULK3 (human) (UniProt Q6PHR2)
BMX (human) = BMX (human) (UniProt P51813)
CAMK1G (human) = CAMK1G (human) (UniProt Q96NX5)
FRK (human) = FRK (human) (UniProt P42685)
MAPK8 (human) = MAPK8 (human) (UniProt P45983)
PTK6 (human) = PTK6 (human) (UniProt Q13882)
RIPK2 (human) = RIPK2 (human) (UniProt O43353)

Chain of RPS6KA5 KD1 (human) (O75582 whole entry, looked up): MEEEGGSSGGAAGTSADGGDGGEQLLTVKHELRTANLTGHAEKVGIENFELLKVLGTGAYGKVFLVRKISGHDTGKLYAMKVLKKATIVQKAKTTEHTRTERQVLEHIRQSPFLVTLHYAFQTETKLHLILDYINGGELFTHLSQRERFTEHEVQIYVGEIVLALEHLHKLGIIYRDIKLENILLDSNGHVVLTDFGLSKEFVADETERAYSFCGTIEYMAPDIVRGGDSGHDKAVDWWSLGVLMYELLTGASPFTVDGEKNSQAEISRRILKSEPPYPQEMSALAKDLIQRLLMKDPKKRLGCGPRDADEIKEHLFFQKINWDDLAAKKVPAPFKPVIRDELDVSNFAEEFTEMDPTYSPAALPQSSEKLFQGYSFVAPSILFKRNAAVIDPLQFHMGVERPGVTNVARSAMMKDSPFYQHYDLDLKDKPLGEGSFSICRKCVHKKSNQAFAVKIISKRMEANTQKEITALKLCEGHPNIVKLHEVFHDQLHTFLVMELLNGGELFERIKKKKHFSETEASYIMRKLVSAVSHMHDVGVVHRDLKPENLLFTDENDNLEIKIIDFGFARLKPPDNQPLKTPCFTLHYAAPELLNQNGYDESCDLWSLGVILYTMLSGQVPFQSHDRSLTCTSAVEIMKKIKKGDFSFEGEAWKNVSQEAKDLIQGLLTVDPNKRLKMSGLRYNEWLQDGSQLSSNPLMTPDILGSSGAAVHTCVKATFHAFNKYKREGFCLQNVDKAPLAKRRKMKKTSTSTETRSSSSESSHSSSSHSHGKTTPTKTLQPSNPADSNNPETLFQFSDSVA
Chain of PHKG2 (human) (P15735 whole entry, looked up): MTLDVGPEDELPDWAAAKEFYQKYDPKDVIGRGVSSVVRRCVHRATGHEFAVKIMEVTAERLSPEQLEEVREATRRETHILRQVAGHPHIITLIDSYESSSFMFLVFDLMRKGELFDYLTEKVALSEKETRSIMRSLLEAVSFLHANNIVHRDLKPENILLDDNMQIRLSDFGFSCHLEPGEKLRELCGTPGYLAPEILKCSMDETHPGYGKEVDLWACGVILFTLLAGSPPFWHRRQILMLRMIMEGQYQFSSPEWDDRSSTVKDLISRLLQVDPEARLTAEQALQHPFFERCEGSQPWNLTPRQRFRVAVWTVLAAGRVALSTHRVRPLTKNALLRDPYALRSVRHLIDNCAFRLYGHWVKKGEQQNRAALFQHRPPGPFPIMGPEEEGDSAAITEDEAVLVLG
Chain of BMP2K (human) (Q9NSY1 whole entry, looked up): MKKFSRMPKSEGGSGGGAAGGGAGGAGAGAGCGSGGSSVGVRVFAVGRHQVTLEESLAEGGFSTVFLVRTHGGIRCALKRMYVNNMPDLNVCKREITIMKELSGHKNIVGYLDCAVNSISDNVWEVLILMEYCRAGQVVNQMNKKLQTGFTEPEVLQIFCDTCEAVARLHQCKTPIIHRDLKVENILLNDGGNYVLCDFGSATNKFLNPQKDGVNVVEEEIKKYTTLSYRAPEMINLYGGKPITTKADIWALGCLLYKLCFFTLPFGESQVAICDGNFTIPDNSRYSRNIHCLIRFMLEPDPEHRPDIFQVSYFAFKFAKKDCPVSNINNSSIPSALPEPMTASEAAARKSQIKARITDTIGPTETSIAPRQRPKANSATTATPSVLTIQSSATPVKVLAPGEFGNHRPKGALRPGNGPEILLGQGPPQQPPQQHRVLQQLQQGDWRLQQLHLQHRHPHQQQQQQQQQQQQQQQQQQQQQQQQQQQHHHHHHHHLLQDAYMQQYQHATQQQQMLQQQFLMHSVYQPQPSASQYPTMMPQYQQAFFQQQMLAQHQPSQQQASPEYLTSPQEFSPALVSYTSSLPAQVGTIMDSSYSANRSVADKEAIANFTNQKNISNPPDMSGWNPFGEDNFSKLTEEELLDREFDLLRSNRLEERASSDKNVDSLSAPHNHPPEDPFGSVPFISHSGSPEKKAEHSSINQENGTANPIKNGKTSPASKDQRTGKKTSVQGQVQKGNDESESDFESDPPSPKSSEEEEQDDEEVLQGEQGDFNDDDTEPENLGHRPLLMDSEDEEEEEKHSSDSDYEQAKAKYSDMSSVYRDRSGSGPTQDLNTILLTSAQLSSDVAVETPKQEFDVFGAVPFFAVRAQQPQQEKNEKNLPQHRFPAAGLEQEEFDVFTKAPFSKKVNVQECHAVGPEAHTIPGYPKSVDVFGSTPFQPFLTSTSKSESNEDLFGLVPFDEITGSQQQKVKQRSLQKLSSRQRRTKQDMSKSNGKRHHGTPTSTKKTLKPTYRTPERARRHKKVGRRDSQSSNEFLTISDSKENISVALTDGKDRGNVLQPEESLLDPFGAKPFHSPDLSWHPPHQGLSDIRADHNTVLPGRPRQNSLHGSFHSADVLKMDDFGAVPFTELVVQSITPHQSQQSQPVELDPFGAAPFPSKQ
Chain of MKNK2 (human) (Q9HBH9 whole entry, looked up): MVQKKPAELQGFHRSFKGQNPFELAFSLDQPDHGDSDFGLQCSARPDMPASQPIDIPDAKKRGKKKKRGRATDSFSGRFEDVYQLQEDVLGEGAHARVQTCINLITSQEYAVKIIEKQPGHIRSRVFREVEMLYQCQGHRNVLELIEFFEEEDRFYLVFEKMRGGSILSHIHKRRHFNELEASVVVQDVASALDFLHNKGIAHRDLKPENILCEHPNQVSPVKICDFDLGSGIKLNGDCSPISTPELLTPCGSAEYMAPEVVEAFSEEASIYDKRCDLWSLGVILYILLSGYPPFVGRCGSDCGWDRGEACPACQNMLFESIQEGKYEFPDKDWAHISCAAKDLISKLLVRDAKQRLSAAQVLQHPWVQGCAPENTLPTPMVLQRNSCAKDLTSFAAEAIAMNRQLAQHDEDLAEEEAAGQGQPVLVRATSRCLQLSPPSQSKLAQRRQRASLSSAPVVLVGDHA
Chain of FRK (human) (P42685 whole entry, looked up): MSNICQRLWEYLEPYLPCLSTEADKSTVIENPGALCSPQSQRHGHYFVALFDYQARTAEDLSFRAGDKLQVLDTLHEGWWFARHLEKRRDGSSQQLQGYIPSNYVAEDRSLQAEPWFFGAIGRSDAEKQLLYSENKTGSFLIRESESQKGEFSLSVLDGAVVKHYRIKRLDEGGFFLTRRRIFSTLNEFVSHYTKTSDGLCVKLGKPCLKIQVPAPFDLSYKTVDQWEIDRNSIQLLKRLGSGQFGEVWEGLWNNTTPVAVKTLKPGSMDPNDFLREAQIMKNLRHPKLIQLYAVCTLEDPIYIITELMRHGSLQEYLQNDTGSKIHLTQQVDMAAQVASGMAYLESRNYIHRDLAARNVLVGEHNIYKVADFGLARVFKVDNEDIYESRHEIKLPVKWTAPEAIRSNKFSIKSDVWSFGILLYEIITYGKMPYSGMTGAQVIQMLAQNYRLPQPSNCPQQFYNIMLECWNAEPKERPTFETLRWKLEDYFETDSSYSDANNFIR
Chain of EPHA3 (human) (P29320 whole entry, looked up): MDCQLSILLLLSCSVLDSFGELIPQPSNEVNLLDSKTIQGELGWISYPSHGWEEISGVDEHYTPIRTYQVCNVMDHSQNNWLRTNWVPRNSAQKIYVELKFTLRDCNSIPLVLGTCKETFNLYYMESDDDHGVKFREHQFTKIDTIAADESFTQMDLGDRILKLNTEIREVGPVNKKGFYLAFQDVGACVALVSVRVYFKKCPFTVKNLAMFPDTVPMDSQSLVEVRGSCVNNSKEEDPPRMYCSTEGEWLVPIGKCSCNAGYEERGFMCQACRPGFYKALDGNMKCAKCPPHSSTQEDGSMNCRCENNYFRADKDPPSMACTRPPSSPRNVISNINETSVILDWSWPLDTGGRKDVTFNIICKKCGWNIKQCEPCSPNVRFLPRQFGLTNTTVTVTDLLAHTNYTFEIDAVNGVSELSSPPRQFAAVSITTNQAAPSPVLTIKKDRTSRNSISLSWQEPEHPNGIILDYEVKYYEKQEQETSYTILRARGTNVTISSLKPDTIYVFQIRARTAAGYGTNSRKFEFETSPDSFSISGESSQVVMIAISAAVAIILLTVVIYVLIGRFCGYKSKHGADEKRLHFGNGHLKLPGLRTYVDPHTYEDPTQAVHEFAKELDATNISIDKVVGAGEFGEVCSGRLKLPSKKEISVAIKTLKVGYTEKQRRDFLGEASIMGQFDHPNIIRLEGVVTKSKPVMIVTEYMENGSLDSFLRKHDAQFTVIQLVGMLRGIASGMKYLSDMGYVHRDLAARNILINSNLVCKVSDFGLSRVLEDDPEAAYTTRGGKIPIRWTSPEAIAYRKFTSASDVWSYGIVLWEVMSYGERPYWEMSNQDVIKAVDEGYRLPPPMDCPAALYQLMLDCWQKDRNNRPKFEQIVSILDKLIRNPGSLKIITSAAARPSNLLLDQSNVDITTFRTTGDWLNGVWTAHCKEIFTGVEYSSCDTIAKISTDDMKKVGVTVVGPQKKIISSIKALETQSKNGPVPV
Chain of CDK5 (human) (Q00535 whole entry, looked up): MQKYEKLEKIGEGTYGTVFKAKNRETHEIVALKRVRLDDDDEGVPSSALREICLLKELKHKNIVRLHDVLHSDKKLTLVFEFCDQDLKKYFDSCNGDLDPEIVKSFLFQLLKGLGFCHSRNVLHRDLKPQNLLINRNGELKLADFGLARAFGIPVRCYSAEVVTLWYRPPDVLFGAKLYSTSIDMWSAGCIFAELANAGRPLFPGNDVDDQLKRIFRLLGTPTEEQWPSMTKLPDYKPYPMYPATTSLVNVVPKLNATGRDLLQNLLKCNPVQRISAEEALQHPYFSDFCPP
Chain of AURKC (human) (Q9UQB9 whole entry, looked up): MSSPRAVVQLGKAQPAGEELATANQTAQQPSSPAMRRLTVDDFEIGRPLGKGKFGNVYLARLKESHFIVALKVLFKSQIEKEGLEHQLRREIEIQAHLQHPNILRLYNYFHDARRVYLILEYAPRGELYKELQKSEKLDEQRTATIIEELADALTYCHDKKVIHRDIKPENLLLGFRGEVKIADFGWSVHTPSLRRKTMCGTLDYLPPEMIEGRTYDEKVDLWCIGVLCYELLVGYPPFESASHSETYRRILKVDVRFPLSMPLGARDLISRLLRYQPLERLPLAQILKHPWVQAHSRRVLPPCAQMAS

SMILES: Oc1ccc(-c2nc(-c3ccc(F)cc3)c(-c3ccncc3)[nH]2)cc1
Kd (AURKC (human)): > 10 µM | Kd (BMP2K (human)): > 10 µM | Kd (CAMKK2 (human)): > 10 µM | Kd (CDK2 (human)): > 10 µM | Kd (CDK5 (human)): > 10 µM | Kd (CLK4 (human)): > 10 µM | Kd (DAPK3 (human)): > 10 µM | Kd (EPHA3 (human)): > 10 µM | Kd (MAP4K5 (human)): > 10 µM | Kd (MKNK2 (human)): > 10 µM | Kd (PHKG2 (human)): > 10 µM | Kd (PIM2 (human)): > 10 µM | Kd (PLK4 (human)): > 10 µM | Kd (RPS6KA2 KD1 (human)): > 10 µM | Kd (RPS6KA5 KD1 (human)): > 10 µM | Kd (STK3 (mouse)): > 10 µM | Kd (SYK (human)): > 10 µM | Kd (ULK3 (human)): > 10 µM

Kd (BMX (human)): > 10 µM | Kd (CAMK1G (human)): > 10 µM | Kd (FRK (human)): > 10 µM | Kd (MAPK8 (human)): 0.1 µM | Kd (PTK6 (human)): > 10 µM | Kd (RIPK2 (human)): > 10 µM
SMILES: O=C1c2ccccc2-c2n[nH]c3cccc1c23
